The target of the test is recombinant eIF4E (Homo sapiens (Human), UniProt P06730). As to the kind of experiment: Fluorescence polarization competition assay for eIF4E binding potency. The essentials:
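Competitive displacement format: compounds compete with a fluorescent m7GDP tracer (20 nM) for 75 nM recombinant eIF4E. Incubation is 30 min at room temperature, protected from light, with 1% DMSO. Polarization read gives IC50 over eight 3-fold concentrations.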
A general note: Polarisation of emitted light reports the rotation of a fluorescent probe.

Setting [1] is: fluorescence polarization competition, 75 nM recombinant eIF4E, 20 nM EDA-m7GDP-ATTO-550, IC50 class, read-out: elF4E FP.
[2] abbreviates: inhibition of eIF4E/EDA-m7GDP-ATTO-550 binding by 50%, Table 4B calculated values, read-out: IC50.
The mark [3] stands for this setting: inhibition of eIF4E/EDA-m7GDP-ATTO-550 binding, calculated IC50 values, Table 4B, read-out: IC50.

SMILES strings stand for the structures. Where two headings read alike, the source gives them in different places.

recombinant eIF4E, sequence (P06730 whole entry): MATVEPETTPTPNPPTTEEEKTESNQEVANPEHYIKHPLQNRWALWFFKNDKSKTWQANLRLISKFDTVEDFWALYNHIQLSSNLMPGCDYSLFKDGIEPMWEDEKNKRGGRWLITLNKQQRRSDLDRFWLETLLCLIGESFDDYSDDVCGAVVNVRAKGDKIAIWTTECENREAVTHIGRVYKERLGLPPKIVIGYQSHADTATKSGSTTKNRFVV

For the molecule `Cc1nc2c(F)c(F)c(C(F)F)c(C#N)c2c(=O)n1CCOc1ccc(Cl)cc1-c1ccnc2c(C(=O)O)csc12` [compound 298], the IC50 runs as follows: under setting [1], 50 to 1000 nM; under setting [2], 101 nM.
On to `Cc1cc(-c2cc(Cl)ccc2OCCn2c(C)nc3cnc(-n4cccn4)c(C#N)c3c2=O)c2scc(C(=O)O)c2n1` [compound 984], for which the IC50 is less than 50 nM under setting [1] and 11.5 nM under setting [2].
Turning to `Cc1nc2cnc(N(C)C3CCN(C4CC(F)(F)C4)CC3)c(C#N)c2c(=O)n1CC#Cc1ccc(Cl)cc1-c1ccnc2c(C(=O)NS(C)(=O)=O)csc12` [compound 1589], under setting [3], the IC50 is 12.4 nM.
Take `Cc1cc(-c2cc(Cl)ccc2OCCn2c(C)nc3cc(C(F)F)c(N4CC(F)(F)C4)c(C#N)c3c2=O)c2scc(C(=O)O)c2n1` [compound 799]: the IC50 under setting [1] is less than 50 nM and the IC50 under setting [2] was 9.35 nM.
Take `Cc1nc2cnc(N(C)CCN(C)CC(F)(F)F)c(C#N)c2c(=O)n1CC#Cc1ccc(Cl)cc1-c1ccnc2c(C(=O)O)csc12` [compound 1491]: the IC50 under setting [3] is 29 nM.
With `Cc1nc2cnc(N3CCN(CC(C)(F)CF)CC3)c(C#N)c2c(=O)n1CCOc1ccc(Cl)cc1-c1ccnc2c(C(=O)O)csc12` (centres unmarked) [compound 1164], the IC50 is, setting by setting: under setting [1], less than 50 nM; under setting [2], 26.7 nM.
Take `Cc1nc2cc(C(F)(F)F)c(CN3CCC(F)(F)CC3)c(C#N)c2c(=O)n1CCOc1ccc(Cl)cc1-c1ccnc2c(C(=O)O)csc12` [compound 522]: the IC50 runs as follows: under setting [1], less than 50 nM; under setting [2], 22.7 nM.
For the molecule `Cc1nc2cc(CN3CC(F)(F)C3)c(OC(F)F)c(C#N)c2c(=O)n1CCOc1ccc(Cl)cc1-c1ccnc2c(C(=O)O)csc12` [compound 1277], the IC50 under setting [3] is 38.4 nM.
For `Cc1nc2cnc(N3C[C@@H](C)N(CC(F)F)[C@@H](C)C3)c(C#N)c2c(=O)n1CCOc1ccc(Cl)cc1-c1ccnc2c(C(=O)O)csc12` [compound 1350], under setting [3], the IC50 is 35.1 nM.
`CCc1cc(-c2cc(Cl)ccc2OCCn2c(C)nc3cnc(-c4ccccc4)c(C#N)c3c2=O)c2scc(C(=O)O)c2n1` [compound 1016]: the IC50 is less than 50 nM under setting [1] and 1.11 nM under setting [2].
As for `Cc1cc(-c2cc(Cl)ccc2OCCn2c(C)nc3c(C)nc(N4CCNCC4)c(C#N)c3c2=O)c2scc(C(=O)O)c2n1` [compound 878], the IC50 by setting is: under setting [1], less than 50 nM; under setting [2], 9.63 nM.
In the case of `Cc1nc2cnc(N(C)C3[C@@H]4C[C@H]3CN(CC(C)(F)F)C4)c(C#N)c2c(=O)n1CC#Cc1ccc(Cl)cc1-c1ccnc2c(C(=O)O)csc12` (some centres unmarked) [compound 1691], the IC50 under setting [3] was 17.9 nM.
On to `Cc1nc2cnc(N3CCN(CC(F)(F)F)CC3)c(C#N)c2c(=O)n1CC#Cc1ccc(Cl)cc1-c1ccnc2c(C(=O)NS(C)(=O)=O)csc12` [compound 1362], for which, under setting [3], the IC50 is 14.1 nM.
Consider `CCN(c1ncc2nc(C)n(CC#Cc3ccc(Cl)cc3-c3ccnc4c(C(=O)O)csc34)c(=O)c2c1C#N)C1CCN(C2CC2)CC1` [compound 1600], for which the IC50 under setting [3] was 20.3 nM.
With `Cc1nc2cnc(OC3CCN(CC(F)(F)F)CC3)c(C#N)c2c(=O)n1CCOc1ccc(Cl)cc1-c1ccnc2c(C(=O)O)csc12` [compound 820], the IC50 was less than 50 nM under setting [1] and 13.6 nM under setting [2].
For the molecule `Cc1cc(-c2cc(Cl)ccc2OCCn2c(C)nc3cc(C(F)(F)F)c(N4CCSCC4)c(C#N)c3c2=O)c2scc(C(=O)O)c2n1` [compound 992], the IC50 is, setting by setting: under setting [1], 50 to 1000 nM; under setting [2], 56.1 nM.
Regarding `Cc1nc2cc(OC(F)F)c(CN(C)C)c(C#N)c2c(=O)n1CCOc1ccc(Cl)cc1-c1ccnc2c(C(=O)O)csc12` [compound 531], the IC50 by setting is: under setting [1], less than 50 nM; under setting [2], 42.9 nM.
On to `Cc1ccc(-c2cc(Cl)ccc2OCCn2c(C)nc3ccc(CCN(C)C)c(C#N)c3c2=O)c2scc(C(=O)O)c12` [compound 576], for which the IC50 was less than 50 nM under setting [1] and 17.7 nM under setting [2].
Consider `Cc1ccc(C)c(-c2c(C(F)(F)F)cc3nc(C)n(CCOc4ccc(Cl)cc4-c4cc(C)nc5c(C(=O)O)csc45)c(=O)c3c2C#N)n1` [compound 906], for which the IC50 is less than 50 nM under setting [1] and 17.6 nM under setting [2].
Regarding `Cc1nc(N2CCN(CCF)CC2)c(C#N)c2c(=O)n(CCOc3ccc(Cl)cc3-c3ccnc4c(C(=O)O)csc34)c(C)nc12` [compound 1624], the IC50 under setting [3] is 4.17 nM.
In the case of `Cc1cc(-c2cc(Cl)ccc2OCCn2c(C)nc3cc(Cl)c(C4CC4)c(C#N)c3c2=O)c2scc(C(=O)O)c2n1` [compound 1050], the IC50 is less than 50 nM under setting [1] and 19.5 nM under setting [2].
For `Cc1cc(-c2cc(Cl)ccc2OCCn2c(C)nc3cnc(N4CCC4)c(C#N)c3c2=O)c2scc(C(=O)O)c2n1` [compound 435], the IC50 reads like this: under setting [1], less than 50 nM; under setting [2], 16.7 nM.
For the molecule `Cc1cc(-c2cc(Cl)ccc2OCCn2c(C)nc3cnc(NN(C)C)c(C#N)c3c2=O)c2scc(C(=O)O)c2n1` [compound 979], the IC50 is less than 50 nM under setting [1] and 9.48 nM under setting [2].
Take `Cc1cc(-c2cc(Cl)ccc2OCCn2c(C)nc3cnc(-c4ccc(C)c(O)c4)c(C#N)c3c2=O)c2scc(C(=O)O)c2n1` [compound 1227]: the IC50 is, setting by setting: under setting [1], less than 50 nM; under setting [3], 12.8 nM.
For the molecule `Cc1cc(-c2cc(Cl)ccc2OCCn2c(C)nc3cc(C(F)(F)F)cc(C#N)c3c2=O)cc(CC(=O)O)n1` [compound 411], the IC50 reads like this: under setting [1], 50 to 1000 nM; under setting [2], 193 nM.
In the case of `Cc1sc2c(-c3cc(Cl)ccc3OCCn3c(C)nc4cc(C(F)(F)F)c(Cl)c(C#N)c4c3=O)ccnc2c1C(=O)O` [compound 555], the IC50 under setting [1] is less than 50 nM and the IC50 under setting [2] was 10.8 nM.
For the molecule `Cc1nc2cnc(N3CCC4(CC3)CN(CC(C)(F)F)C4)c(C#N)c2c(=O)n1CC#Cc1ccc(Cl)cc1-c1ccnc2c(C(=O)NS(=O)(=O)c3cccnc3)csc12` [compound 1412], under setting [3], the IC50 is 6.71 nM.
With `Cc1nc2cnc(N3CCN(CCC(F)(F)F)CC3)c(C#N)c2c(=O)n1CC#Cc1ccc(Cl)cc1-c1ccnc2c(C(=O)NS(C)(=O)=O)csc12` [compound 1486], the IC50 under setting [3] was 10.7 nM.
Regarding `Cc1c(CCOc2ccc(Cl)cc2-c2ccnc3c(C(=O)O)csc23)c(=O)c2c(C#N)cc(C(F)(F)F)cc2n1CCF` [compound 362], the IC50 by setting is: under setting [1], 50 to 1000 nM; under setting [2], 72.2 nM.
As to `Cc1nc2cnc(OC3CCN(C4CC(F)(F)C4)CC3)c(C#N)c2c(=O)n1CCOc1ccc(Cl)cc1-c1ccnc2c(C(=O)O)csc12` [compound 1543], the IC50 under setting [3] was 20.5 nM.
On the same count and under the same terms, to `Cc1nc2cnc(OC3CCN(CCF)CC3)c(C#N)c2c(=O)n1CCOc1ccc(Cl)cc1-c1ccnc2c(C(=O)O)csc12` [compound 1479] belongs 16.7 nM.
`N#Cc1cc2c(=O)n(CCOc3ccc(Cl)cc3-c3csc(C(=O)O)c3)cnc2cn1` [compound 80]: the IC50 reads like this: under setting [1], 50 to 1000 nM; under setting [2], 110 nM.
On the same counts, the results for `Cc1nc2ccc(CCN(C)C)c(C#N)c2c(=O)n1CCOc1ccc(Cl)cc1-c1ccnc2c(C(=O)O)csc12` [compound 507] are less than 50 nM and 49 nM.
For `CCCCc1nc2c(=O)n(CCOc3ccc(Cl)cc3-c3cc(C)nc4c(C(=O)O)csc34)c(C)nc2cc1C(F)(F)F` [compound 391], the IC50 under setting [1] was less than 50 nM and the IC50 under setting [2] is 3.52 nM.
`Cc1nc2cncc(C#N)c2c(=O)n1CC#Cc1ccc(Cl)cc1-c1ccnc2c(C(=O)O)csc12` [compound 624]: the IC50 under setting [1] was less than 50 nM and the IC50 under setting [2] was 4.02 nM.
As to `Cc1nc2cnc(/C=C/CN3CC(F)C3)c(C#N)c2c(=O)n1CCOc1ccc(Cl)cc1-c1ccnc2c(C(=O)O)csc12` [compound 1122], the IC50 was less than 50 nM under setting [1] and 14.6 nM under setting [2].
For the molecule `Cc1cc(-c2cc(Cl)ccc2OCCn2c(C)nc3cnc(-c4ccc(C(F)(F)F)cc4)c(C#N)c3c2=O)c2scc(C(=O)O)c2n1` [compound 952], the IC50 was less than 50 nM under setting [1] and 45 nM under setting [2].
On to `CCN(c1ncc2nc(C)n(CC#Cc3ccc(Cl)cc3-c3ccnc4c(C(=O)NS(C)(=O)=O)csc34)c(=O)c2c1C#N)C1CCN(CC(F)(F)C(F)F)CC1` [compound 1607], for which the IC50 under setting [3] was 14.6 nM.
With `N#Cc1cc2c(=O)n(CCOc3ccc(Cl)cc3-c3cc4c(c(C(=O)O)c3)OCO4)cnc2cn1` [compound 96], the IC50 under setting [1] was greater than 1000 nM and the IC50 under setting [2] is 2100 nM.
Taken in the same sequence, the figures for `Cc1cc(-c2cc(Cl)ccc2OCCn2c(C)nc3cnc(N4CC(OC(F)(F)F)C4)c(C#N)c3c2=O)c2scc(C(=O)O)c2n1` [compound 1042] were less than 50 nM and 26.5 nM.
On the same counts, the results for `CNC(=O)c1cc2c(=O)n(CCOc3ccc(Cl)cc3-c3cccc(C(=O)O)c3)cnc2cn1` [compound 132] are 50 to 1000 nM and 624 nM.
For `Cc1nc2cnc(C#CCN(C)CC(F)(F)F)c(C#N)c2c(=O)n1CC#Cc1ccc(Cl)cc1-c1ccnc2c(C(=O)O)csc12` [compound 1468], the IC50 under setting [3] was 35 nM.
For `N#Cc1cccc2nc(C(F)F)n(CCOc3ccc(Cl)cc3-c3nccc4c(C(=O)O)csc34)c(=O)c12` [compound 189], the IC50 is greater than 1000 nM under setting [1] and 1570 nM under setting [2].
`Cc1cc(-c2cc(Cl)ccc2OCCn2c(C)nc3cnc(C4CC4)c(C#N)c3c2=O)c2scc(C(=O)O)c2c1C` [compound 771]: the IC50 under setting [1] is less than 50 nM and the IC50 under setting [2] is 12.8 nM.
For the molecule `Cc1nc2cc(C(F)(F)F)cc(C#N)c2c(=O)n1CCOc1ccc(Cl)cc1-c1cc(C(F)F)nc2c(C(=O)O)csc12` [compound 563], the IC50 under setting [1] was less than 50 nM and the IC50 under setting [2] is 14.4 nM.
For `Cc1nc2cnc(N(C)[C@H]3CC[C@@H](N(C)CCF)CC3)c(C#N)c2c(=O)n1CC#Cc1ccc(Cl)cc1-c1ccnc2c(C(=O)O)csc12` [compound 1533], the IC50 under setting [3] is 21.7 nM.

Source of the values: patent US11286268B1, “EIF4E-inhibiting compounds and methods” (EFFECTOR THERAPEUTICS, INC., priority 2019, dated 2022).
